Values joined by “and” are separate entries in the source; they are usually repeats but may differ in a detail not shown here. Identical values can stand only once. Non-standard residues stand in square brackets, D forms with d. Residues, ends and D or L forms follow the SMILES beside them. *: point of attachment. Cha = N[C@@H](CC1CCCCC1)C(=O)O; dChg = N[C@@H](C(=O)O)C1CCCCC1; dPhg = N[C@@H](C(=O)O)c1ccccc1; pNA = O=[N+]([O-])c1ccc(N*)cc1; Chg = N[C@H](C(=O)O)C1CCCCC1
Molecular target: T1, Human urinary kallikrein (Homo sapiens, UniProt P06870)
T1 construct: Human urinary kallikrein (hereinafter "HUK") was highly purified using a modification of published methods; from tissue; host or cells: human urine
Experiment: KI determination: inhibition of HUK cleavage of chromogenic substrate S-2266
Assay type: biochemical
Settings: HUK, substrate S-2266, pH 9.0, 37 C; read-out: KI
Method: (§1) Human urinary kallikrein (hereinafter "HUK") was highly purified using a modification of published methods that employ ultrafiltration, aprotinin-CH-sepharose affinity chromatography, and Sephadex G-100 gel filtration [ole-MoiYoi et al., Proc. Natl. Acad. Sci. USA 76: 3121-3125 (1979)]. […] The pH of each fraction was determined immediately upon elution, and the fraction was neutralized by addition of 2.0 ml of 2M Tris-HCL buffer (pH 8.0).
KI Determinations: KI measurements were performed using a HP8450A diode array spectrophotometer (Hewlett Packard; Palo Alto, Calif.) attached to a Model 216 computer using the multi-component assay program modified to allow simultaneous determination of reaction velocity in four samples. Dixon plots were used to data reduction and for calculation of […]. […] Inhibition of biologically active kinin from LMW-kininogen was done at pH 7.7 and 37 C.
Procedurally, the KI values for the preliminary analogue inhibitors reported previously [Okunishi et al., Hypertension 7 (Suppl. I): I-72-I-75 (1985)] were determined by adding the chromogenic substrate S-2266 comprising D-Val-Leu-Arg-4-nitroaniline to a mixture of the analogue inhibitor and the HUK.
Initially, the inhibitor constant (KI) for each of these novel inhibitor compositions was determined using purified HUK and the tripeptide nitroanilide, S-2266. The ability to inhibit hydrolysis of the S-2266 substrate was performed in 50 mM tris-HCL buffer (pH 9.0) at 37 C. Subsequently, the ability of these novel inhibitors to inhibit human plasma kallikrein and bovine pancreatic trypsin were similarly examined using the specific substrates H-D-Pro-Phe-Arg-p-nitroanilide (S-2302) and Glu-Gly-Arg-p-nitroanilide (S-2444) respectively. The degradation products of each series was purified by HPLC and quantified by liquid scintillation counting as previously described.

T1 sequence (P06870 25-262): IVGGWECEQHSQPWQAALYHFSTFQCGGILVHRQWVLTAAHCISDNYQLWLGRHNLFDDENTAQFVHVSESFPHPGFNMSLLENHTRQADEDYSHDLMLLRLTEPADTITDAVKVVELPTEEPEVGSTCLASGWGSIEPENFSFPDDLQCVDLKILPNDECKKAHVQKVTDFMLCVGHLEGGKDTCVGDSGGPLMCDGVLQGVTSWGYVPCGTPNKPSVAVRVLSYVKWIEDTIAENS

Ki	SMILES
35 µM	CC(=O)N[C@@H](Cc1ccccc1)C(=O)N[C@@H](CCCN=C(N)N)C(=O)N[C@@H](CO)C(=O)N[C@H](C(=O)N[C@@H](CCC(N)=O)C(N)=O)C(C)C [KKI-4, Ac--Phe--Arg--Ser--Val--Gln--NH2, reference compound] (Ac-FRSVQ-NH2)
156 µM and 136 µM	CC(=O)N1CCC[C@H]1C(=O)N[C@@H](Cc1ccccc1)C(=O)N[C@@H](CCCNC(=N)N)C(=O)N[C@@H](CO)C(=O)N[C@H](C(=O)N[C@@H](CCC(N)=O)C(N)=O)C(C)C [KKI-5, Ac--Pro--Phe--Arg--Ser--Val--Gln--NH2, reference compound] (Ac-PFRSVQ-NH2)
73 µM	CC(=O)N[C@@H](CO)C(=O)N1CCC[C@H]1C(=O)N[C@@H](Cc1ccccc1)C(=O)N[C@@H](CCCNC(=N)N)C(=O)N[C@@H](CO)C(=O)N[C@H](C(=O)N[C@@H](CCC(N)=O)C(N)=O)C(C)C [KKI-6, Ac--Ser--Pro--Phe--Arg--Ser--Val--Gln--NH2, reference compound] (Ac-SPFRSVQ-NH2)

Molecular target: T1, Human urinary kallikrein
Experiment: KM determination: hydrolysis of substrate analogues by HUK (HPLC, scintillation counting)
Assay type: biochemical
Settings: hydrolysis by HUK; kininogen = 1.0
Method: as §1
KM Determination: Hydrolysis of the substrate analogue inhibitors by HUK was measured by combining the test inhibitor at different concentrations on either side of the KM value with the enzyme at pH 9.0 for thirty minutes at 37 C. The cleavage products were separated from the starting material in the digest by HPLC on a Beckman octadecylsilane (ODS) column (1×25 cm) using a thirty minute gradient of from 0-70% CH3 CN in triethylammonium phosphate buffer (pH 7.0). The starting materials and reaction products were completely resolved under these conditions. Absorbance of the HPLC effluent was monitored at 220 nm. Individual fractions were collected and the amount of peptide degradation products was quantitated by counting in a liquid scintillation counter. Samples containing individual inhibitors were incubated without HUK and solvent blanks were also chromatographed and analyzed in the same way.
For test purposes, in these HUA cleavage studies, individual peptide sequences were synthesized, purified, and characterized as previously described herein. For these cleavage studies, doubly labelled peptides were prepared using [^3 H]-valine and […] respectively. In addition, 6.0N HCL-dioxane was used for removal of tert-butoxycarbonyl protecting groups and 90% hydrogen fluoride/10% anisole (volume/volume) for global deprotection on completion of the synthesis. After extraction and gel filtration on Sephadex G-15, final purification was completed by isocratic elution from a synchrom RP-P column (2.1×25 cm) with CH3 CN--H2 O (8 ml/min). The resultant peptides were deemed to be homogeneous by amino acid analysis; high performance liquid chromatography; thin layer chromatography; and A230 /A260 ratio analysis. […]

RELATIVE SPECIFICITY	SMILES
4.2	CC(=O)N[C@@H](Cc1ccccc1)C(=O)N[C@@H](CCCNC(=N)N)C(=O)N[C@@H](CO)C(=O)N[C@H](C(=O)N[C@@H](CCC(N)=O)C(N)=O)C(C)C [KKI-4, Ac--Phe--Arg--Ser--Val--Gln--NH2, reference compound] (Ac-FRSVQ-NH2)
3.2	CC(=O)N1CCC[C@H]1C(=O)N[C@@H](Cc1ccccc1)C(=O)N[C@@H](CCCNC(=N)N)C(=O)N[C@@H](CO)C(=O)N[C@H](C(=O)N[C@@H](CCC(N)=O)C(N)=O)C(C)C [KKI-5, Ac--Pro--Phe--Arg--Ser--Val--Gln--NH2, reference compound] (Ac-PFRSVQ-NH2)
45.4	CC(=O)N[C@@H](CO)C(=O)N1CCC[C@H]1C(=O)N[C@@H](Cc1ccccc1)C(=O)N[C@@H](CCCNC(=N)N)C(=O)N[C@@H](CO)C(=O)N[C@H](C(=O)N[C@@H](CCC(N)=O)C(N)=O)C(C)C [KKI-6, Ac--Ser--Pro--Phe--Arg--Ser--Val--Gln--NH2, reference compound] (Ac-SPFRSVQ-NH2)

Molecular target: T1, Human urinary kallikrein
Experiment: IC50 of tripeptide 4-nitroanilides against HUK cleavage of S-2266
Assay type: biochemical
Settings: S-2266, 4.0 ng HUK, 37 C, pH 9.0
Excerpt: An evaluation of other possible peptide sequences and their potential effect as substrate analogue inhibitors specifically of tissue kallikrein was undertaken using chromogenic substrates comprising alternate series of tripeptide 4-nitroanilides using previously described methods [Amundsen et al., "Methods For The Determination Of Glandular Kallikrein By Means Of A Chromogenic Tripeptide Substrate," in Kinins-II. Part A. Plenum Press, 1979, pages 83-95]. This methodology relies on the capacity of HUK to cleave p-nitroaniline from specifically synthesized tripeptide 4-nitroanilines. Controls for this experimental series included S-2266 comprising D-Val-Leu-Arg-4NA; S-2444 comprising D-Glu-Gly-Arg-4NA; and S-2302 comprising D-Pro-Phe-Arg-4NA respectively. The 50% inhibitory concentration (IC50) values for each synthesized tripeptide 4-nitroanilide was determined at 37 C. at pH 9.0 using the specific kallikrein substrates S-2266 (Kabi, Helena Laboratories, Beaumont, Tex.). 4.0 nanograms (hereinafter "ng") of HUK were used in each sample. Blanks lacking S-2266 were run in parallel to correct for hydrolysis of all samples. In all cases, the amount of 4-nitroaniline generated from each tripeptide was less than 10% of that observed for the hydrolysis of S-2266.

IC50 [µM]	SMILES
7.4	N=C(N)NCCC[C@H](NC(=O)[C@H](CC1CCCCC1)NC(=O)[C@H](N)c1ccccc1)C(=O)Nc1ccc([N+](=O)[O-])cc1 [D-0Gly--Cha--Arg--4NA] (H-[dPhg]-[Cha]-Arg-pNA)
> 200	NCCCC[C@H](NC(=O)[C@H](CC1CCCCC1)NC(=O)[C@H](N)c1ccccc1)C(=O)Nc1ccc([N+](=O)[O-])cc1 [D-0Gly--Cha--Lys--4NA] (H-[dPhg]-[Cha]-Lys-pNA)
150	NCCCC[C@H](NC(=O)[C@H](CC1CCCCC1)NC(=O)[C@H](N)C1CCCCC1)C(=O)Nc1ccc([N+](=O)[O-])cc1 [D-Chg--Cha--Lys--4NA] (H-[dChg]-[Cha]-Lys-pNA)
3.7	N=C(N)NCCC[C@H](NC(=O)[C@H](Cc1ccccc1)NC(=O)[C@H](N)C1CCCCC1)C(=O)Nc1ccc([N+](=O)[O-])cc1 [D-Chg--Phe--Arg--4NA] (H-[dChg]-Phe-Arg-pNA)
11.5	N=C(N)NCCC[C@H](NC(=O)[C@H](CC1CCCCC1)NC(=O)[C@@H](N)C1CCCCC1)C(=O)Nc1ccc([N+](=O)[O-])cc1 [L-Chg--Cha--Arg--4NA] (H-[Chg]-[Cha]-Arg-pNA)
18.7	CC(C)C[C@H](NC(=O)[C@@H](N)C1CCCCC1)C(=O)N[C@@H](CCCNC(=N)N)C(=O)Nc1ccc([N+](=O)[O-])cc1 [L-Chg--Leu--Arg--4NA] (H-[Chg]-Leu-Arg-pNA)
10.5	CC[C@H](C)[C@H](N)C(=O)N[C@@H](CC1CCCCC1)C(=O)N[C@@H](CCCNC(=N)N)C(=O)Nc1ccc([N+](=O)[O-])cc1 [L-Ile--Cha--Arg--4NA] (H-Ile-[Cha]-Arg-pNA)
